In patent publication US20050267025A1, “Compositions and methods for treatment of infectious and inflammatory diseases” (priority 2002, published 2005):

System: human monocytes
Assay type: cell-based

polymyxin B [reference compound]
effect on IL-10 promotion when added to yeast rCFP32 or CF from WT and mutant Mtb: no effect
